Data reported in patent publication US20240269139A1, “COMPOUNDS FOR TARGETED PROTEIN DEGRADATION OF KINASES” (DANA-FARBER CANCER INSTITUTE, INC., priority 2020, published 2024).
Where two headings read alike, the source gives them in different places.

Columns and labels:
[1] = molecular target: protein kinases (human kinome) (Homo sapiens, UniProt Q15118); format: cell-based; conditions: PDK1 Q15118
[2] = molecular target: protein kinases (human kinome) (Homo sapiens, UniProt Q15119); format: cell-based; conditions: for logFC PDK2: Accession Q15119-1
[3] = molecular target: T1, extended human kinome (kinase-like proteins) (Homo sapiens, UniProt Q53R41); assay: Whole cell quantitative proteomics: extended kinome hits
T1 sequence (Q53R41 1-847): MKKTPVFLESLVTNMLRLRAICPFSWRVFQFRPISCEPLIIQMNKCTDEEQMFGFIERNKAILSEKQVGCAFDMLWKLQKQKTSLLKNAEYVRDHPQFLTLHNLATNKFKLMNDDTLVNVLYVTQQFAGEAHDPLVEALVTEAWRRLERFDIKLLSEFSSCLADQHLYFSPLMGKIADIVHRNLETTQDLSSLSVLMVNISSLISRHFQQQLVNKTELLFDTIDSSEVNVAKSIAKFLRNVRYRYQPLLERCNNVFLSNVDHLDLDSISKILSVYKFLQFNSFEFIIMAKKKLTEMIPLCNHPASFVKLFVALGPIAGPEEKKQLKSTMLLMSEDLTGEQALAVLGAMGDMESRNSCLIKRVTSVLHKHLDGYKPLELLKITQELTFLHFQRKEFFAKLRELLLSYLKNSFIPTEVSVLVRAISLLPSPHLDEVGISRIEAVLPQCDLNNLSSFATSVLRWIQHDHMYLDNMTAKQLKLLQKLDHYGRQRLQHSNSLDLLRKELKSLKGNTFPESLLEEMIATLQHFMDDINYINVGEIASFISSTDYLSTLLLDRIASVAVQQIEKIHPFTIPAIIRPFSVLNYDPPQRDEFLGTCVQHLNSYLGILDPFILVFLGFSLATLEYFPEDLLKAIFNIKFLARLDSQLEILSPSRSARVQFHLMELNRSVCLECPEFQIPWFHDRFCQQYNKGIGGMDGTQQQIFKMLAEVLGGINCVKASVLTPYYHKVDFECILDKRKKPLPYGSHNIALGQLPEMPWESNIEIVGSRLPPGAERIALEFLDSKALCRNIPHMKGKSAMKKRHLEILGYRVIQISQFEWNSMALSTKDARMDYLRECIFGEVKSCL

[4] = molecular target: extended human kinome (kinase-like proteins) (Homo sapiens, UniProt Q9UIJ7); assay: as above
extended human kinome (kinase-like proteins) (Homo sapiens, UniProt Q9UIJ7), sequence (Q9UIJ7 whole entry): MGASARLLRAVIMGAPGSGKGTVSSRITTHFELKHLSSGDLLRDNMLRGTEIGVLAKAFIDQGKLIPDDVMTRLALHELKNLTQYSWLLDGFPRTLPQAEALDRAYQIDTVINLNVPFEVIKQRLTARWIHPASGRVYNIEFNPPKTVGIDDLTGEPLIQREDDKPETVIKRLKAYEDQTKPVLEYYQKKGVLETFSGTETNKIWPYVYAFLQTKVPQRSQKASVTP

[5] = molecular target: protein kinases (human kinome) (Homo sapiens, UniProt P07947); format: cell-based; conditions: YES1 (P07947), experiment wp131
protein kinases (human kinome) (Homo sapiens, UniProt P07947), sequence (P07947 whole entry): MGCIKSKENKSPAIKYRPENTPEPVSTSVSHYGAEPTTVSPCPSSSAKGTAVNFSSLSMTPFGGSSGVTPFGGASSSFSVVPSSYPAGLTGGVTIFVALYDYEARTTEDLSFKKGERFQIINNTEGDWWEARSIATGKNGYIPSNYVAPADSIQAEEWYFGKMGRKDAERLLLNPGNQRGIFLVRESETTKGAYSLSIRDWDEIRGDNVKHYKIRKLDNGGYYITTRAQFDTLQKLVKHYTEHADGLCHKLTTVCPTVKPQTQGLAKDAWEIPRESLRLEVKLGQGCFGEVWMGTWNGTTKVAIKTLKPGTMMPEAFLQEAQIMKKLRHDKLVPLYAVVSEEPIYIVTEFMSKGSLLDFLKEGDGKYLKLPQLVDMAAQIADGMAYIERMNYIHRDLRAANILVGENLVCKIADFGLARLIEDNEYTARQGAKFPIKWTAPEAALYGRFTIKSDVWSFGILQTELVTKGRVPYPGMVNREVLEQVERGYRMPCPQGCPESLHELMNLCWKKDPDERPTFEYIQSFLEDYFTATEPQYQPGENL

[6] = molecular target: protein kinases (human kinome) (Homo sapiens, UniProt P24941); format: cell-based
[7] = molecular target: protein kinases (human kinome) (Homo sapiens, UniProt Q14004); format: cell-based; conditions: for logFC CDK13: Accession Q14004-1
protein kinases (human kinome) (Homo sapiens, UniProt Q14004), sequence (Q14004 whole entry): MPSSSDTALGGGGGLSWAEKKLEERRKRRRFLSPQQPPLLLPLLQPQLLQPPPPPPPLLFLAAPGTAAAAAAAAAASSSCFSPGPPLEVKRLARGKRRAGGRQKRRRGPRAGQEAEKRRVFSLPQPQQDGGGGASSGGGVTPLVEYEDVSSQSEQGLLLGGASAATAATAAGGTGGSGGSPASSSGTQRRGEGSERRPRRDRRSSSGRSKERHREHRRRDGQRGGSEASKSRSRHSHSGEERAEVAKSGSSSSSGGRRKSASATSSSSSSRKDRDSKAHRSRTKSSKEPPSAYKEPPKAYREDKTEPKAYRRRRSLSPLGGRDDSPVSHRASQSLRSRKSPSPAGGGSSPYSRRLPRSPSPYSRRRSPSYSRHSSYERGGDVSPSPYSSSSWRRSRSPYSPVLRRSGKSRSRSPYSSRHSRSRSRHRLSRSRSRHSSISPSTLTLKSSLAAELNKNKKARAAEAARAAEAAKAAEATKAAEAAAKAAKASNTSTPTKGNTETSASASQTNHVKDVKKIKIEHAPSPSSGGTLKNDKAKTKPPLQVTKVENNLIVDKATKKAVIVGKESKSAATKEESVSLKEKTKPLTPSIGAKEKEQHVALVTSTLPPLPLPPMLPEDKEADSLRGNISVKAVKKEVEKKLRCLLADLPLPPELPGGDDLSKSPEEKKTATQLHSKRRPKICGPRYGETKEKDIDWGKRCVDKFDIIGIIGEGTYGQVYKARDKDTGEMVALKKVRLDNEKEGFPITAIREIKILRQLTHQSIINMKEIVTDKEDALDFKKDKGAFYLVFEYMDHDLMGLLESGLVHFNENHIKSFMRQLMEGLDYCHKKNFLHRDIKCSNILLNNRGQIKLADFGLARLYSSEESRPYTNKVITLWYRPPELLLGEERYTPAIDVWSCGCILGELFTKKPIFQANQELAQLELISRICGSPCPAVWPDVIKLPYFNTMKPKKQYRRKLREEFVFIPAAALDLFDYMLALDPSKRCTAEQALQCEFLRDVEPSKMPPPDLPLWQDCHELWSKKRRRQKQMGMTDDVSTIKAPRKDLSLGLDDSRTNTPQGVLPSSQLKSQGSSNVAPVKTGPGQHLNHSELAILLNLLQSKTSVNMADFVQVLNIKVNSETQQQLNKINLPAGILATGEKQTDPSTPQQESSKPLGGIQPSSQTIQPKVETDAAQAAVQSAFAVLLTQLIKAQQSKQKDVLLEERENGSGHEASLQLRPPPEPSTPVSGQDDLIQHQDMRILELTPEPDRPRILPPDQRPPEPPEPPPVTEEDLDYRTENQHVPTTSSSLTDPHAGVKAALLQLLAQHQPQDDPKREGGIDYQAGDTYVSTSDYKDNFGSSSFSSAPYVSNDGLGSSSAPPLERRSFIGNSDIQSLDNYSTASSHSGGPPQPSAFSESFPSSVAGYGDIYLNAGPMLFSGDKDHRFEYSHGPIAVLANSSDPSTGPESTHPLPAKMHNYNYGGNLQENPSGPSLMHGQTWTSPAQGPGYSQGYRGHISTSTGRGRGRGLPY

[8] = molecular target: protein kinases (human kinome) (Homo sapiens, UniProt Q9NYV4); format: cell-based
protein kinases (human kinome) (Homo sapiens, UniProt Q9NYV4), sequence (Q9NYV4 whole entry): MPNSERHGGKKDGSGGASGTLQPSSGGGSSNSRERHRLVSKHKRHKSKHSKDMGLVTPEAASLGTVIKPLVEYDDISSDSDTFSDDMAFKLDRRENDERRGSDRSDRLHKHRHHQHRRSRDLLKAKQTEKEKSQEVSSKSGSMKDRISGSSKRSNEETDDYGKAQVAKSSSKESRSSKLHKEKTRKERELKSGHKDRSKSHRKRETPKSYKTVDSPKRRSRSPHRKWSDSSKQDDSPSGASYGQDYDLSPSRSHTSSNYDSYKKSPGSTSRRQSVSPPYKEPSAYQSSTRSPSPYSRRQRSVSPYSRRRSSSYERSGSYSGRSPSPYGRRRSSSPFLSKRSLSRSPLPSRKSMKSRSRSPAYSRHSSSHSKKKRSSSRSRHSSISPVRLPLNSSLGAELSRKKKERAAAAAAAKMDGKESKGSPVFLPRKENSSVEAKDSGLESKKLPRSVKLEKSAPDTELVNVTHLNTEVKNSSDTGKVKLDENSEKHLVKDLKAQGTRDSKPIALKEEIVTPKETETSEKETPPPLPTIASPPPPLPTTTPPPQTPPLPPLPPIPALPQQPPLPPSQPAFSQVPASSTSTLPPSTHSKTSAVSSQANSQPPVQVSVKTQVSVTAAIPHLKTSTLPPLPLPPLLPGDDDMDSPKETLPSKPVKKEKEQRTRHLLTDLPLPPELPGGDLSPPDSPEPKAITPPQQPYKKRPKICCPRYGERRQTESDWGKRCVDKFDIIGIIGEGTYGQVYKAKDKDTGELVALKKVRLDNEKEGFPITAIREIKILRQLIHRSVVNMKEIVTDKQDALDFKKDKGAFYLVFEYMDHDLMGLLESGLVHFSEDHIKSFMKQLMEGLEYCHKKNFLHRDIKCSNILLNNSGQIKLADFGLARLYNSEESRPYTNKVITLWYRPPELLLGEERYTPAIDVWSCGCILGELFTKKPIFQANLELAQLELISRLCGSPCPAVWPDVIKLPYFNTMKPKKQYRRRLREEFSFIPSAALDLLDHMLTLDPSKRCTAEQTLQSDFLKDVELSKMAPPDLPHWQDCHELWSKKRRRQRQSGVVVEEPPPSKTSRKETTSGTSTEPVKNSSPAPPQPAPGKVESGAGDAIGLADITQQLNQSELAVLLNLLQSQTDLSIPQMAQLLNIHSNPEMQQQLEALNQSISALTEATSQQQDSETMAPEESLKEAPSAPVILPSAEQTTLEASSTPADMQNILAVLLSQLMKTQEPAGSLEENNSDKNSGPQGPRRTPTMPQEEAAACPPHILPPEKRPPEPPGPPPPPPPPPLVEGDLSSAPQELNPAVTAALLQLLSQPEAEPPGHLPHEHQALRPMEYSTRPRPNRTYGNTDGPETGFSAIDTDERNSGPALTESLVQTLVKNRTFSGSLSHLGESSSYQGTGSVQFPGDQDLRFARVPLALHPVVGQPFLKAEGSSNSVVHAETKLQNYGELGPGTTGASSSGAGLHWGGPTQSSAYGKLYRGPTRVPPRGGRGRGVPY

[9] = molecular target: extended human kinome (kinase-like proteins) (Homo sapiens, UniProt Q16875); assay: Whole cell quantitative proteomics: extended kinome hits; conditions: Accession Q16875
extended human kinome (kinase-like proteins) (Homo sapiens, UniProt Q16875), sequence (Q16875 whole entry): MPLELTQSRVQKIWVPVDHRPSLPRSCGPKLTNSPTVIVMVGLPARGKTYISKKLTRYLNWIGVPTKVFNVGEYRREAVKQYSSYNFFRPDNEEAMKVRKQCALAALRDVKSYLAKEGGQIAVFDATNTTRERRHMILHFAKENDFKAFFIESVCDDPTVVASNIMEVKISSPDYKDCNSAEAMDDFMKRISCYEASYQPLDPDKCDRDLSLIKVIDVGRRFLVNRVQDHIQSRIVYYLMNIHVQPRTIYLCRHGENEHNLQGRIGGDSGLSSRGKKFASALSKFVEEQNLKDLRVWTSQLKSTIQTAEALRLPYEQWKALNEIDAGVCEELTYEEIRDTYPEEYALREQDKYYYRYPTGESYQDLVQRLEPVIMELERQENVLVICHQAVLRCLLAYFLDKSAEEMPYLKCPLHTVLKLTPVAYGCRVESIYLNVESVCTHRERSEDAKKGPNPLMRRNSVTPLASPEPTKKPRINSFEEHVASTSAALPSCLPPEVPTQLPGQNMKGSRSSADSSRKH

protein kinases (human kinome) (Homo sapiens, UniProt Q15118), sequence (Q15118 29-436): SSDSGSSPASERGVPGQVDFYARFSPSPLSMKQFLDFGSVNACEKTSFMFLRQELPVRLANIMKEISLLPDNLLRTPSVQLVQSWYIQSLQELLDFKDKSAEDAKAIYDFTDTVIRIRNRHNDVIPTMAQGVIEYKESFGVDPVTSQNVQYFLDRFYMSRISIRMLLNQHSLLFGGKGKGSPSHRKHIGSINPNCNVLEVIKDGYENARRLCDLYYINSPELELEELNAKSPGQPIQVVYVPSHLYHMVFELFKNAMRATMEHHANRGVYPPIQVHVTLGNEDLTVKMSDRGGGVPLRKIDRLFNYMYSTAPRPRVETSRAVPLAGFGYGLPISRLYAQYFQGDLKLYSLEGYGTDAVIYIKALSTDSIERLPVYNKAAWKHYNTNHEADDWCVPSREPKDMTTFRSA

SMILES: CC(=O)c1c(C)c2cnc(Nc3ccc(N4CCN(CCOCCOCCOCCNC(=O)COc5cccc6c5C(=O)N(C5CCC(=O)NC5=O)C6=O)CC4)cn3)nc2n(C2CCCC2)c1=O (stereo not drawn) [BSJ.03.123]
- logFC ([1]; experiment wp084): −0.5666
- logFC PDK1 ([1]; experiment wp084): −0.5666
- logFC PDK2 ([2]; experiment wp084): −0.3615
- logFC PDK2 (Q15119-1) ([2]; experiment wp084): −0.3615
- logFC FASTKD1 (Q53R41) ([3]; experiment wp084): −0.5242
- logFC AK3 (Q9UIJ7-1) ([4]; experiment wp084): −0.4577

SMILES: CN(C)C(=O)c1cc2cnc(Nc3ccc(N4CCN(CCCCNC(=O)COc5cccc6c5C(=O)N(C5CCC(=O)NC5=O)C6=O)CC4)cn3)nc2n1C1CCCC1 (stereo not drawn) [BSJ.04.132]
- logFC ([1]; experiment wp084): −0.7569
- logFC PDK1 ([1]; experiment wp084): −0.7569
- logFC PDK2 ([2]; experiment wp084): −0.5289
- logFC PDK2 (Q15119-1) ([2]; experiment wp084): −0.5289
- logFC FASTKD1 (Q53R41) ([3]; experiment wp084): −0.6747
- logFC AK3 (Q9UIJ7-1) ([4]; experiment wp084): −0.6124

SMILES: CC(C)(C)c1nc(-c2cccc(NS(=O)(=O)c3c(F)cccc3F)c2F)c(-c2ccnc(NCCOCCNC(=O)CCOCCOCCNc3cccc4c3CN(C3CCC(=O)NC3=O)C4=O)n2)s1 (stereo not drawn) [DD.03.107]
- logFC ([1]; experiment wp147, 1 uM): −0.4722
- logFC PDK1 ([1]; experiment wp147, 1 uM): −0.4722
- logFC ([1]; experiment wp147, 2 uM): −0.4534
- logFC PDK1 ([1]; experiment wp147, 2 uM): −0.4534
- logFC ([1]; experiment wp147, 4 uM): −1.108
- logFC PDK1 ([1]; experiment wp147, 4 uM): −1.108
- logFC PDK2 ([2]; experiment wp137): −0.3383
- logFC PDK2 ([2]; experiment wp147, 1 uM): −0.4963
- logFC PDK2 ([2]; experiment wp147, 2 uM): −0.5351
- logFC PDK2 ([2]; experiment wp147, 4 uM): −0.9269
- logFC PDK2 (Q15119-1) ([2]; experiment wp137): −0.3383
- logFC PDK2 (Q15119-1) ([2]; experiment wp147, 1 uM): −0.4963
- logFC PDK2 (Q15119-1) ([2]; experiment wp147, 2 uM): −0.5351
- logFC PDK2 (Q15119-1) ([2]; experiment wp147, 4 uM): −0.9269
- logFC FASTKD1 (Q53R41) ([3]; experiment wp147, 1 uM): −0.58
- logFC FASTKD1 (Q53R41) ([3]; experiment wp147, 2 uM): −0.5044
- logFC FASTKD1 (Q53R41) ([3]; experiment wp147, 4 uM): −0.9447
- logFC AK3 (Q9UIJ7-1) ([4]; experiment wp147, 1 uM): −0.5265
- logFC AK3 (Q9UIJ7-1) ([4]; experiment wp147, 2 uM): −0.5607
- logFC AK3 (Q9UIJ7-1) ([4]; experiment wp147, 4 uM): −1.001

SMILES: O=C(COc1cccc2c1C(=O)N(C1CCC(=O)NC1=O)C2=O)NCCCCCCCC(=O)NC1(c2ccc(-c3nc4ccn5c(=O)[nH]nc5c4cc3-c3ccccc3)cc2)CCC1 (stereo not drawn) [INY.01.140.1]
- logFC ([1]; experiment wp081): −0.4328
- logFC PDK1 ([1]; experiment wp081): −0.4328
- logFC PDK2 ([2]; experiment wp081): −0.6094
- logFC PDK2 (Q15119-1) ([2]; experiment wp081): −0.6094
- logFC FASTKD1 (Q53R41) ([3]; experiment wp081): −0.4808
- logFC AK3 (Q9UIJ7-1) ([4]; experiment wp081): −0.4102

SMILES: Cc1cnc(Nc2ccc(N3CCN(CCOCCOCCNC(=O)COc4cccc5c4C(=O)N(C4CCC(=O)NC4=O)C5=O)CC3)cc2)nc1Nc1cccc(S(=O)(=O)NC(C)(C)C)c1 (stereo not drawn) [JWG.118]
- logFC AK3 (Q9UIJ7-1) ([4]; experiment wp071): −0.4221

SMILES: CNC(=O)c1ccccc1Nc1cc(Nc2ccc(N3CCN(CCOCCOCCNC(=O)CNc4cccc5c4C(=O)N(C4CCC(=O)NC4=O)C5=O)CC3)cc2OC)ncc1C(F)(F)F (stereo not drawn) [MFH.5.103.1]
- logFC AK3 (Q9UIJ7-1) ([4]; experiment wp076): −0.431

SMILES: CC(C)S(=O)(=O)c1ccccc1Nc1nc(Nc2ccc(N3CCN(CCOCCOCCNC(=O)CNc4cccc5c4C(=O)N(C4CCC(=O)NC4=O)C5=O)CC3)cc2)ncc1Cl (stereo not drawn) [TL12.186]
- logFC [5]: −0.5437
- logFC ([5]; direction down): −0.5437
- logFC CDK2 (P24941-1) ([6]; experiment wp016): −0.5971
- logFC CDK2 (P24941-1) ([6]; experiment wp016, direction of change down): −0.5971
- logFC CDK2 (P24941-1) ([6]; experiment wp131): −0.98
- logFC CDK2 (P24941-1) ([6]; experiment wp131, direction of change down): −0.98
- logFC CDK2 (P24941-1) ([6]; experiment wp137): −0.9162
- logFC CDK2 (P24941-1) ([6]; experiment wp137, direction of change down): −0.9162
- logFC CDK13 ([7]; experiment wp016): −0.5885
- logFC CDK13 ([7]; experiment wp131): −0.7903
- logFC CDK13 ([7]; experiment wp137): −0.7062
- logFC ([7]; CDK13 (Q14004-1), experiment wp016): −0.5885
- logFC CDK13 (Q14004-1) ([7]; experiment wp131): −0.7903
- logFC CDK13 (Q14004-1) ([7]; experiment wp137): −0.7062
- logFC PDK2 ([2]; experiment wp137): −0.5022
- logFC PDK2 (Q15119-1) ([2]; experiment wp137): −0.5022
- logFC CDK12 ([8]; Accession Q9NYV4-1, experiment wp016): −0.9185
- logFC CDK12 ([8]; Accession Q9NYV4-1, experiment wp131): −1.402
- logFC CDK12 ([8]; CDK12 (Q9NYV4-1), experiment wp016): −0.9185
- logFC CDK12 ([8]; CDK12 (Q9NYV4-1), experiment wp131): −1.402
- logFC PFKFB3 ([9]; experiment wp131): −0.5643
- logFC PFKFB3 ([9]; experiment wp137): −0.4067
- logFC FASTKD1 (Q53R41) ([3]; experiment wp137): −0.3731
